Measurements taken from patent publication US12419863B2, “Pharmaceutical composition for use in treatment of hypertrophic cardiomyopathy” (CELLTRION INC., priority 2018, dated 2025).

What was measured:
[1] = patients with hypertrophic cardiomyopathy; no control group; cited from earlier work
[2] = Clinical safety and tolerability evaluation with 12-electrode electrocardiogram, single oral administration (Example 1); conditions: healthy subjects; for QRS / QTcF: oral
Experimental: Randomized, double-blind, placebo-controlled, sequential, ascending, single dosing studies were conducted to evaluate safety, tolerability, pharmacokinetics and pharmacodynamics of cibenzoline.
In this study, a total of 24 subjects were randomly assigned 1:1:1 to three cohorts and proceeded in a total of four stages: screening, treatment period 1, withdrawal period, and treatment period 2. The ratio between the dosed group and the non-dosed group (placebo) is assigned as 6:2.
The main endpoints are safety, tolerability and side effects, and the clinical test items are corrected QT interval (calculated by Fridericia formula) [QTc(F)]), QT interval, and QRS interval, PR interval, and 12-electrode electrocardiogram including ventricular rate, vital signs (blood pressure, pulse, body temperature, respiration rate), hypersensitivity reaction (determined by electrocardiogram recording and vital signs), clinical inspection evaluation (hematology, blood chemistry, urinalysis, etc.), adverse reactions (including serious adverse reactions).

[3] = Clinical safety and tolerability evaluation with electrocardiogram, repeated oral administration (Example 2); format: in vivo, human; conditions: cohorts 4 and 5: 200 mg once a day for 5 days and 300 mg once a day for 14 days, healthy subjects
[4] = Cohort 1: 200 mg once, Day 1, 1.5 h after administration
[5] = Cohort 1: 200 mg once, Day 1, 3 h after administration
[6] = Cohort 1: 200 mg once, Day 1, 8 h after administration
[7] = Cohort 1: 200 mg once, Day 1 before administration (baseline)
[8] = Cohort 2: 300 mg once, Day 1, 1.5 h after administration
[9] = Cohort 2: 300 mg once, Day 1, 3 h after administration
[10] = Cohort 2: 300 mg once, Day 1, 8 h after administration
[11] = Cohort 2: 300 mg once, Day 1 before administration (baseline)

## c1ccc(C2(c3ccccc3)CC2C2=NCCN2)cc1 (racemic) [cibenzoline, 2-(2,2-diphenylcyclopropyl)-4,5-dihydro-1H-imidazole]
[1]
  side effects compared with disopyramide: fewer side effects than disopyramide

## c1ccc(C2(c3ccccc3)CC2C2=NCCN2)cc1 (stereo not drawn) [S(−)-cibenzoline]
[2]; 200 mg and 300 mg once a day, single oral administration, compared to cohort 3 (racemic mixture 150 mg 3 times a day)
  side effects (safety and tolerability): did not cause significant side effects
[2]; [4]
  QRS: 102 ms
  QTcF: 412 ms
[2]; [5]
  QRS: 107 ms
  QTcF: 426 ms
[2]; [6]
  QRS: 99 ms
  QTcF: 408 ms
[2]; [7]
  QRS: 92 ms
  QTcF: 406 ms
[2]; [8]
  QRS: 107 ms
  QTcF: 419 ms
[2]; [9]
  QRS: 116 ms
  QTcF: 429 ms
[2]; [10]
  QRS: 107 ms
  QTcF: 415 ms
[2]; [11]
  QRS: 101 ms
  QTcF: 411 ms
[2]; cohorts 1 and 2: 200 mg and 300 mg, single oral administration
  effects of QcTF and QRS prolongation (electrocardiography): QcTF and QRS prolongation were confirmed
[3]
  effects of QcTF and QRS prolongation (electrocardiography): QcTF and QRS prolongation were confirmed
[3]; compared to cohort 6 (racemic mixture 150 mg 3 times a day, 14 days)
  side effects for multiple administration (safety and tolerability): did not cause significant side effects
